In PubChem BioAssay AID1918946 (Molecular Pharmacology Branch, DTP, NCI, 2023):

Tested on: 885512-296-R-J2-PDC complex spheroid viability
Assay: Anticancer human tumor 885512-296-R-J2-PDC patient-derived breast carcinoma cell line growth inhibition
Details: for IC50: curve of first compound; for viability, T/C: stronger effect = lower value
In short: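 Multicellular complex spheroids of tumor cells with human endothelial cells (HUVEC) and mesenchymal stem cells; the LSD1 inhibitor iadademstat was combined with standard-of-care or investigational agents. Top concentration at or near clinical Cmax, half-log dilutions; final DMSO ≤0.25%.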

[1] = second compound 0.1 µM, first compound 0.000316 µM
[2] = second compound 0.1 µM, first compound 0.001 µM
[3] = second compound 0.1 µM, first compound 0.00316 µM
[4] = second compound 0.1 µM, first compound 0.01 µM
[5] = second compound 0.1 µM, first compound 0.0316 µM
[6] = second compound 0.1 µM, first compound 0.1 µM
[7] = second compound 0.316 µM, first compound 0.000316 µM
[8] = second compound 0.316 µM, first compound 0.001 µM
[9] = second compound 0.316 µM, first compound 0.00316 µM
[10] = second compound 0.316 µM, first compound 0.01 µM
[11] = second compound 0.316 µM, first compound 0.0316 µM
[12] = second compound 0.316 µM, first compound 0.1 µM
[13] = second compound 1 µM, first compound 0.000316 µM
[14] = second compound 1 µM, first compound 0.001 µM
[15] = second compound 1 µM, first compound 0.00316 µM
[16] = second compound 1 µM, first compound 0.01 µM
[17] = second compound 1 µM, first compound 0.0316 µM
[18] = second compound 1 µM, first compound 0.1 µM
[19] = second compound 3.16 µM, first compound 0.000316 µM
[20] = second compound 3.16 µM, first compound 0.001 µM
[21] = second compound 3.16 µM, first compound 0.00316 µM
[22] = second compound 3.16 µM, first compound 0.01 µM
[23] = second compound 3.16 µM, first compound 0.0316 µM
[24] = second compound 3.16 µM, first compound 0.1 µM
[25] = second compound 10 µM, first compound 0.000316 µM
[26] = second compound 10 µM, first compound 0.001 µM
[27] = second compound 10 µM, first compound 0.00316 µM
[28] = second compound 10 µM, first compound 0.01 µM
[29] = second compound 10 µM, first compound 0.0316 µM
[30] = second compound 10 µM, first compound 0.1 µM
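Also: spheroids exposed to agents for 7 days before viability read.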

Row | Compound | IC50 (second compound 0.1 µM) [nM] | IC50 (second compound 0.316 µM) [nM] | IC50 (second compound 1 µM) [nM] | IC50 (second compound 3.16 µM) [nM] | IC50 (second compound 10 µM) [nM] | viability, T/C [3] [%] | viability, T/C [4] [%] | viability, T/C [5] [%] | viability, T/C [6] [%] | viability, T/C [9] [%] | viability, T/C [10] [%] | viability, T/C [11] [%] | viability, T/C [12] [%] | viability, T/C [15] [%] | viability, T/C [16] [%] | viability, T/C [17] [%] | viability, T/C [18] [%] | viability, T/C [21] [%] | viability, T/C [22] [%] | viability, T/C [23] [%] | also measured
1 | CC(C)CC(NC(=O)C(Cc1ccccc1)NC(=O)c1cnccn1)B(O)O (stereo not given) + NC1CCC(NC2CC2c2ccccc2)CC1 | 1.3 | 1.34 | 1.38 | 1.33 | 1.09 | 2.42 | 0.24 | 7.32 | 3.74 | 2.51 | 0.43 | 7.09 | 3.61 | 2.46 | 0.35 | 3.66 | 3.45 | 1.59 | 0.23 | 0.08 | viability, T/C [1]: 149%; viability, T/C [2]: 63.9%; viability, T/C [7]: 134%; viability, T/C [8]: 65.7%; viability, T/C [13]: 152%; viability, T/C [14]: 68.4%; viability, T/C [19]: 137%; viability, T/C [20]: 66.2%; viability, T/C [24]: 0.08%; viability, T/C [25]: 138%; viability, T/C [26]: 54%; viability, T/C [27]: 1.4%; viability, T/C [28]: 0.2%; viability, T/C [29]: 0.09%; viability, T/C [30]: 0.13%
2 | CC(C)CC(NC(=O)CNC(=O)c1cc(Cl)ccc1Cl)B1OC(=O)CC(CC(=O)O)(C(=O)O)O1 (stereo not given) + NC1CCC(NC2CC2c2ccccc2)CC1 | 6.41 | 6.9 | 6.61 | 6.51 | 5.07 | 102 | 16.9 | 4.82 | 8.2 | 106 | 23.3 | 3.92 | 3.86 | 103 | 20.4 | 4.02 | 6.64 | 110 | 14.4 | 5.03 | viability, T/C [1]: 148%; viability, T/C [2]: 136%; viability, T/C [7]: 125%; viability, T/C [8]: 126%; viability, T/C [13]: 121%; viability, T/C [14]: 131%; viability, T/C [19]: 124%; viability, T/C [20]: 117%; viability, T/C [24]: 1.02%; viability, T/C [25]: 107%; viability, T/C [26]: 107%; viability, T/C [27]: 76.3%; viability, T/C [28]: 12%; viability, T/C [29]: 2.47%; viability, T/C [30]: 0.56%
3 | COc1cc(Nc2ncc3c(n2)-c2ccc(Cl)cc2C(c2c(F)cccc2OC)=NC3)ccc1C(=O)O + NC1CCC(NC2CC2c2ccccc2)CC1 | 8.96 | 7.35 | 7.37 | 9.53 | 5.12 | 78.8 | 42.8 | 33.2 | 24 | 90.6 | 31.3 | 34.2 | 39.1 | 90.9 | 29.4 | 37.3 | 22.1 | 87.4 | 42.1 | 33.7 | viability, T/C (second compound 0.1 µM, first compound 0.316 µM): 12.3%; viability, T/C (second compound 0.1 µM, first compound 1 µM): 13.2%; viability, T/C (second compound 0.316 µM, first compound 0.316 µM): 14.5%; viability, T/C (second compound 0.316 µM, first compound 1 µM): 11.5%; viability, T/C (second compound 1 µM, first compound 0.316 µM): 17.5%; viability, T/C (second compound 1 µM, first compound 1 µM): 13.2%; viability, T/C [24]: 38.1%; viability, T/C (second compound 3.16 µM, first compound 0.316 µM): 14.6%; viability, T/C (second compound 3.16 µM, first compound 1 µM): 16.6%; viability, T/C [27]: 70.5%; viability, T/C [28]: 21.4%; viability, T/C [29]: 29.7%; viability, T/C [30]: 22.7%; viability, T/C (second compound 10 µM, first compound 0.316 µM): 17.1%; viability, T/C (second compound 10 µM, first compound 1 µM): 15.3%
